# In patent US8518710B2, “Photon reducing agents for fluorescence assays” (Life Technologies Corporation, priority 1997, dated 2013):
# Test: Absorption maxima of dyes (Table 1)
# Type: physicochemical
row,Absorption maxima of dyes,Compound
1,635 nm,CCN(CC)c1ccc(C(=C2C=CC(=[N+](CC)CC)C=C2)c2cc(O)c(S(=O)(=O)O)cc2S(=O)(=O)O)cc1 [Patent Blue]
2,425 nm,O=C([O-])C1=NN(c2ccc(S(=O)(=O)[O-])cc2)C(=O)C1N=Nc1ccc(S(=O)(=O)[O-])cc1.[Na+].[Na+].[Na+] (centres unmarked) [Tartrazine]
3,607 nm,Cc1cc(-c2ccc(/N=N/c3c(S(=O)(=O)O)cc4cc(S(=O)(=O)O)cc(N)c4c3O)c(C)c2)ccc1/N=N/c1c(S(=O)(=O)O)cc2cc(S(=O)(=O)O)cc(N)c2c1O [Trypan Blue]

# Further lines, the compound ahead of its results:
row,Compound,Absorption maxima of dyes
1,Acid Fuchsin,546 nm
2,Acid Red 37,513 nm
